According to PubChem BioAssay (NCI):
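Briefly, cells in 96-well plates were exposed to five compound concentrations for 48 h, and endpoints were estimated by linear interpolation. The concentration for 50% growth inhibition is given as GI50. TGI is the concentration that stops growth completely.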

How the values were obtained:
Assay in all cases: NCI tumour cell line growth inhibition, 48 h
786-0 renal = tested on: 786-0 renal
DU-145 prostate = tested on: DU-145 prostate
MALME-3M melanoma = tested on: MALME-3M melanoma
NCI-H226 lung = tested on: NCI-H226 lung
OVCAR-4 ovarian = tested on: OVCAR-4 ovarian
SF-295 CNS = tested on: SF-295 CNS
SK-OV-3 ovarian = tested on: SK-OV-3 ovarian
T-47D breast = tested on: T-47D breast
TK-10 renal = tested on: TK-10 renal
UACC-257 melanoma = tested on: UACC-257 melanoma

Row | SMILES | GI50 (786-0 renal) | TGI (786-0 renal) | GI50 (DU-145 prostate) | TGI (DU-145 prostate) | GI50 (MALME-3M melanoma) | TGI (MALME-3M melanoma) | GI50 (NCI-H226 lung) | TGI (NCI-H226 lung) | GI50 (OVCAR-4 ovarian) | TGI (OVCAR-4 ovarian) | GI50 (SF-295 CNS) | TGI (SF-295 CNS) | GI50 (SK-OV-3 ovarian) | TGI (SK-OV-3 ovarian) | GI50 (T-47D breast) | TGI (T-47D breast) | GI50 (TK-10 renal) | TGI (TK-10 renal) | GI50 (UACC-257 melanoma) | TGI (UACC-257 melanoma)
1 | O=C1C(=O)c2c(nc3ncccn23)-c2ccccc21 | 0.304 µM | 0.766 µM | 0.181 µM | 0.336 µM | 0.169 µM | 0.307 µM | 0.493 µM | 1.25 µM | 0.161 µM | 0.297 µM | 0.173 µM | 0.316 µM | 1.08 µM | 2.52 µM | 0.264 µM | 1.02 µM | 1.85 µM | 3.35 µM | 0.175 µM | 0.339 µM
2 | CC(C)CC(=O)CC(O)C(Cl)(Cl)Cl (stereo not given) |  | > 100 µM |  | > 100 µM |  | > 100 µM |  | > 100 µM |  | > 100 µM |  | > 100 µM |  | > 100 µM |  | > 100 µM |  | > 100 µM |  | > 100 µM
3 | Cc1ccc(-n2c(-c3ccc(Cl)cc3)cs/c2=N\NC(=O)COc2n[nH]c(=O)c3ccccc23)cc1 | 51.4 µM | > 100 µM | > 100 µM | > 100 µM | 31.9 µM | > 100 µM | 39.6 µM | > 100 µM | > 100 µM | > 100 µM | 19.7 µM | > 100 µM | 57.9 µM | > 100 µM | > 100 µM | > 100 µM | 52.7 µM | > 100 µM | 80.2 µM | > 100 µM
4 | OC(C(=Nc1ccccc1)c1ccccc1)c1ccccc1 (stereo not given) |  | 41.9 µM |  | 21.7 µM |  | 7.01 µM |  | 34.1 µM |  | 51.8 µM |  | 26.3 µM |  | 55.8 µM |  | > 100 µM |  | 9.53 µM |  | 5.56 µM
5 | N#CC(=S)Nc1ccc(F)cc1 |  | > 100 µM |  | > 100 µM |  | > 100 µM |  | > 100 µM |  | > 100 µM |  | > 100 µM |  | > 100 µM |  | > 100 µM |  | > 100 µM |  | > 100 µM
